One data set has as its system Sarkom 180. Description: sarcoma 180 in NMRI mice: tumour size and survival, alone or with gamma rays or thermal neutrons. The class given is in vivo, NMRI-Mäuse. The note with it: for überlebende Tiere: 40 Tage after start of treatment. The text has this: Die geringe Toxizität der erfindungsgemäß verwendeten Substanz ermöglicht eine so hohe Dosierung, daß sowohl eine begrenzte Eigenwirkung zum Tragen kommt als auch insbesondere eine ausreichende Erhöhung der ^10Bor-Konzentration in den erkrankten Zellen erreicht wird. So wurde festgestellt, daß die Toxizität bei der Maus i.p. eine DL50 um 2000 m^g/k^g ergibt. Pharmakologisch wurde festgestellt, daß N-Trimethyl-^10B-carboxyaminoboran den Einbau von 125 Jod -^desoxyuridin bei der gesunden Maus senkt. Weiterhin senkt es den Einbau von ^125Jod -desoxyuridin in das Sarkom 180 der Maus.
Besonders eindrucksvoll ist die Veränderung der Überlebenszeiten der Sarkom 180 tragenden NMRI-Mäuse. Während 40 Tage nach Beginn der Behandlung von den unbehandelten und den nur mit Neutronen behandelten Tieren ca. 90% am Tumor gestorben sind, überleben zu diesem Zeitpunkt ca. 40% der nur mit N-Trimethyl-^10B-carboxy-aminoboran und ca. 75 % der mit dieser Substanz und Neutronen behandelten Tiere.
Ein Vergleich mit Natriumpentaborat und Neutronen zeigt, daß nur 20 bis 30 % der Sarkom-Tiere überleben.
(§1) Diese pharmakologischen Befunde wurden zunächst noch mit einem N-Trimethyl- B-carboxy-aminoboran erhalten, welches nur 20 % ^10Bor enthielt. Durch Steigerung des ^10Bor-Gehalts auf 80 bis 90% erhöht sich die Antitumorwirkung durch Neutroneneinfang um das. 4 bis 5-fache: • C-57 BL/6j Mäuse mit Adenocarcinom EO 771 werden in drei Gruppen aufgeteilt: • Gruppe 1 dient als Kontrolle Gruppe 2 wird 6 Minuten mit thermischen Neutronen bestrahlt Gruppe 3 erhält 10 mg N-Trimethyl-^10B-carboxyaminoboran intraperitonal (i.p.) und wird nach 6 Stunden - dem Zeitpunkt der optimalen Anreicherung im Tumorgewebe - für 6 Minuten mit thermischen Neutronen bestrahlt.

Data set [1] in a line: therapeutic results in combination with neutrons (model not stated). The note with it: in Verbindung mit Neutronen, compared with N-Trimethyl-10B-carboxyaminoboran.
A short description of data set [2]: acute toxicity (DL50) in the mouse, i.p. The note with it: in vivo, ip, Maus.
Another data set deals with gesunden Maus. Description: incorporation of 125I-deoxyuridine in the healthy mouse. The class given is in vivo. The note with it: gesunde Maus.
The next data set concerns Sarkom 180 der Maus. In words: incorporation of 125I-deoxyuridine into sarcoma 180 of the mouse. The format is in vivo. The note with it: in Sarkom 180 der Maus.
Another data set is described as follows: water solubility. The format is physicochemical. The note with it: for intravenous application.
Data set [3] can be described thus: boron accumulation in tumour tissue versus blood. The format is in vivo.
The subject of another data set is Adenocarcinom EO 771. Description: adenocarcinoma EO 771 in C-57 BL/6j mice, neutron capture therapy. The class given is in vivo, C-57 BL/6j Mäuse. The conditions noted are these: 10 mg i.p., after 6 Stunden 6 Minuten thermische Neutronen. On the procedure: as §1
The nature of data set [4]: toxicity compared with the compound of the invention (species not stated).

The term LD50 denotes the dose expected to kill half of the subjects tested. A higher LD50 goes with a less toxic substance.

Regarding `C[N+](C)(C)[BH2-]C(=O)O` [N-Trimethyl- B-carboxy-aminoboran, reference compound], the “lokale oder systemische Schäden” value in the data set on Sarkom 180 (surviving animals) is recorded as “An keinem der überlebenden Tiere wurden lokale oder systemische Schäden beobachtet”.

Take `[NH3+][10BH2-]C(=O)O` [Ammoniak- ^10B-carboxyboran, Ammoniak- ^10 B-carboxyboran]: the “therapeutische Ergebnisse” value in data set [1] was “Noch bessere therapeutische Ergebnisse”. Also, in [2], the LD50 is ~2500 mg/kg.

As to `C[N+](C)(C)[10BH2-]C(=O)O` [N-Trimethyl-^10B-carboxyaminoboran], the “überlebende Tiere” value is “ca. 40%” in the data set on Sarkom 180 (substance alone); “ca. 75%” in the data set on Sarkom 180 (substance and Neutronen). For the same compound, the Tumorgröße entry is listed as “Verkleinerung des Tumors” with Sarkom 180 (Sarkom 180 der Maus, substance alone) and “nimmt der Tumor in Gruppe 3 nach der kombinierten Behandlung an Größe ab” in the data set with Adenocarcinom EO 771. The Tumorwachstum entry with Sarkom 180 (combination with γ-Strahlen) is on record as “positiv beeinflußt”. Further, in the data set with Sarkom 180 (simultaneous treatment with thermischen Neutronen), the Tumorvolumen entry is given as “wesentlich stärker verkleinert als durch die Einzelkomponenten”. For the same compound, the “Einbau von 125Jod -desoxyuridin” value with gesunden Maus and with Sarkom 180 der Maus was “senkt” each time. Besides, the LD50 in [2] was ~2000 mg/kg. In addition, the Wasserlöslichkeit result in the data set “water solubility” was “ausreichend wasserlöslich”. In addition, the Kp in data set [3] (tumour to blood, 6 bis 12 Stunden after intravenous injection, read-out: Bor-Konzentration im Tumor relative to Blut) is 2 to 3. The Tmax in [3] (tumour, ip, after i.p. application, read-out: Zeitpunkt der optimalen Anreicherung im Tumorgewebe) was 6 h. Also, the “time until tumour is reduced to a minimum” value in the data set on Adenocarcinom EO 771 is recorded as ~7 Tagen.

Turning to Natriummonomercaptoundecahydrodecaborat, the “toxicity relative to the compound of the invention” value in data set [4] is ~5 mal.
